Holding throughout (format): functional
Test [1] concerns the target T1, G-protein coupled receptor 35 (Homo sapiens, UniProt Q9HC97). In words: SAR analysis of Agonists of the GPR35 Receptor using an Image-Based Assay - Set 4. [Related pubchem assays (depositor defined):AID2013, AID2026].
Test [2] concerns the target T2, Cannabinoid receptor 1 (Homo sapiens, UniProt P21554). In words: SAR analysis of agonists of the Cannabinoid Receptor 1 using an Image-Based Assay - Set 4. [Related pubchem assays (depositor defined):AID2013, AID2026].
Test [3] addresses T1, G-protein coupled receptor 35. In words: SAR analysis of Antagonists of the GPR35 Receptor using an Image-Based Assay - Set 6. [Related pubchem assays (depositor defined):AID2013, AID2026].
Test [4] deals with T2, Cannabinoid receptor 1. Put plainly: SAR analysis of antagonists of the Cannabinoid Receptor 1 using an Image-Based Assay - Set 4. [Related pubchem assays (depositor defined):AID2013, AID2026].
The target in test [5] is G-protein coupled receptor 55 (Homo sapiens, UniProt Q9Y2T6). Put plainly: SAR Analysis of Selective Antagonists of GPR55 using an Image-Based Assay - Set 4. [Related pubchem assays (depositor defined):AID2013, AID2026].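 Also: antagonism of response to 5 µM lysophosphatidylinositol agonist.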
Test [6] deals with T3, Cannabinoid receptor 2 (Homo sapiens, UniProt P34972). In words: SAR analysis of antagonists of the Cannabinoid Receptor 2 using an Image-Based Assay - Set 3. [Related pubchem assays (depositor defined):AID2013, AID2026].
Test [7] deals with T3, Cannabinoid receptor 2. Put plainly: SAR analysis of agonists of the Cannabinoid Receptor 2 using an Image-Based Assay - Set 3. [Related pubchem assays (depositor defined):AID2013, AID2026].
In test [8] the target is Tyrosine-protein phosphatase non-receptor type 12 (Homo sapiens, UniProt Q05209). Put plainly: SAR Selectivity Analysis of small molecule inhibitors of PEST using pCAP in a fluorescence assay. [Related pubchem assays (depositor defined):AID1779, AID1784, AID2135].
Test [9] deals with T4, Tyrosine-protein phosphatase non-receptor type 22 (Homo sapiens, UniProt Q9Y2R2).
T4 sequence (Q9Y2R2 whole entry): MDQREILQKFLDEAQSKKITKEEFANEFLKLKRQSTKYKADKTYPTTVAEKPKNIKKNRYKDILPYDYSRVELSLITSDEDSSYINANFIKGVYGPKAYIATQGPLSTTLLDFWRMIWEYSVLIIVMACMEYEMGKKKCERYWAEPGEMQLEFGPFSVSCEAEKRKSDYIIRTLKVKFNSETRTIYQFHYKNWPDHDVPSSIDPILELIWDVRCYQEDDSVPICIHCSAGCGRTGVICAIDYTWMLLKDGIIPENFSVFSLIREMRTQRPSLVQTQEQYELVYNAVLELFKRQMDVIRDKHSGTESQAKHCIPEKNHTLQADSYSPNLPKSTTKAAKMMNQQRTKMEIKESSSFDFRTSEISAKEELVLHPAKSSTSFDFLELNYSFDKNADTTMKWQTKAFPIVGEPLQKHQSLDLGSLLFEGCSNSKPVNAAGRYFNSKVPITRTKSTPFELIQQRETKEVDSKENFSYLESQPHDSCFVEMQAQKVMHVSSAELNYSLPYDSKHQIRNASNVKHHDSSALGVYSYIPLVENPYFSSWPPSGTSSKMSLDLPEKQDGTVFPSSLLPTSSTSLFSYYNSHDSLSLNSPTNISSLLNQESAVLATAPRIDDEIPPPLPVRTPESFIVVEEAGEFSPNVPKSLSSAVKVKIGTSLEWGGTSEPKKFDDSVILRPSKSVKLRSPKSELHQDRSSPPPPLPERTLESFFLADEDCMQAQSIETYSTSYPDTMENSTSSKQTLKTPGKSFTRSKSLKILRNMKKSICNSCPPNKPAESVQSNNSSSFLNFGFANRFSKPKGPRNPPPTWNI
Put plainly: SAR LYP1 Fluorescent Assay using OMFP substrate for In Vitro dose response studies - Set 3. [Related pubchem assays (depositor defined):AID1779, AID1784, AID2140, AID2686].

The target of test [10] is T5, Tyrosine-protein phosphatase non-receptor type 7 (Homo sapiens, UniProt P35236).
T5 sequence (P35236 whole entry): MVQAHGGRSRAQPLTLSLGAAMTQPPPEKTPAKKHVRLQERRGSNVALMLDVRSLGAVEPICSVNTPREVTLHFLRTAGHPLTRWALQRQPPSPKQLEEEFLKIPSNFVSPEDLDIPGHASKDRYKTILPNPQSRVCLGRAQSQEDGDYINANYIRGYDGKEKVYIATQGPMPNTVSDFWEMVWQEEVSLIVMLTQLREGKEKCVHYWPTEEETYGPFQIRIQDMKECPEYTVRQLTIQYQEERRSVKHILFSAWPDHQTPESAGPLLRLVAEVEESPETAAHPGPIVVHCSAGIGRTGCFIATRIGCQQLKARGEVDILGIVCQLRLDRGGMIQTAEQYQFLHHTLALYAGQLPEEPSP
In words: redox-active compounds inhibiting HePTP phosphatase – biochemical, fluorescence, mechanism study (AID 2068).

Test [11] has as its target T5, Tyrosine-protein phosphatase non-receptor type 7. In words: inhibition of hematopoietic tyrosine phosphatase HePTP – biochemical, set 2, SAR follow-up (AID 449736).
The target in test [12] is T4, Tyrosine-protein phosphatase non-receptor type 22. In words: inhibition of lymphoid tyrosine phosphatase LYP – biochemical, pCAP fluorogenic substrate, fluorescence, set 3, SAR follow-up (AID 449727).
In test [13] the target is Dual specificity protein phosphatase 3 (Homo sapiens, UniProt P51452). Put plainly: SAR VHR1 Fluorescent Assay for In Vitro dose response studies Set 2. [Related pubchem assays (depositor defined):AID1654, AID1661, AID1878].
The target of test [14] is T6, Dual specificity protein phosphatase 6 (Rattus norvegicus, UniProt Q64346).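 Also: confirmatory in vitro dose-response testing of MKP-3 inhibition; recombinant His-tagged MKP-3 made in E. coli BL21 with OMFP substrate.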
T6 sequence (Q64346 whole entry): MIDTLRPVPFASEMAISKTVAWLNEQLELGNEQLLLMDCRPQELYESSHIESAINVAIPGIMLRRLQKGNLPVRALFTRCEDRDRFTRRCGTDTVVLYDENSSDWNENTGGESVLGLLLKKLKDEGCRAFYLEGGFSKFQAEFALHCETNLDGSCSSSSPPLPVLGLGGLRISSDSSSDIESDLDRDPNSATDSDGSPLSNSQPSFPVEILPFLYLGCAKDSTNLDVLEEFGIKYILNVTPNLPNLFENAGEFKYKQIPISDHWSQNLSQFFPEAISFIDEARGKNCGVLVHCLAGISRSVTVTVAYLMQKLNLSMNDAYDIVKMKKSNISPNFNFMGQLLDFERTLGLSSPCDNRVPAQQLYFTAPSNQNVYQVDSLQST

Activity calls are given as the source filed them. A value given as a limit tells only on which side of the number the result lay.

T3 sequence (P34972 whole entry): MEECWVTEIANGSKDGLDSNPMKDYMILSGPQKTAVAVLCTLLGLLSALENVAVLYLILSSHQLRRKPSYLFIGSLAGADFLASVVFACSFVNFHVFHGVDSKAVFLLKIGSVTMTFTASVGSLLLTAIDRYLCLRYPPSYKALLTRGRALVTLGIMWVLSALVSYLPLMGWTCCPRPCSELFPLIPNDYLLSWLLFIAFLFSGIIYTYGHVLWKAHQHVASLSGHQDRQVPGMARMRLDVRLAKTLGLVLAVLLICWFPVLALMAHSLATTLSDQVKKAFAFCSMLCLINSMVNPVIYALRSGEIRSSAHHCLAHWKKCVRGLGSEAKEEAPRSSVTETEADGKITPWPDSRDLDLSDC
T2 sequence (P21554 whole entry): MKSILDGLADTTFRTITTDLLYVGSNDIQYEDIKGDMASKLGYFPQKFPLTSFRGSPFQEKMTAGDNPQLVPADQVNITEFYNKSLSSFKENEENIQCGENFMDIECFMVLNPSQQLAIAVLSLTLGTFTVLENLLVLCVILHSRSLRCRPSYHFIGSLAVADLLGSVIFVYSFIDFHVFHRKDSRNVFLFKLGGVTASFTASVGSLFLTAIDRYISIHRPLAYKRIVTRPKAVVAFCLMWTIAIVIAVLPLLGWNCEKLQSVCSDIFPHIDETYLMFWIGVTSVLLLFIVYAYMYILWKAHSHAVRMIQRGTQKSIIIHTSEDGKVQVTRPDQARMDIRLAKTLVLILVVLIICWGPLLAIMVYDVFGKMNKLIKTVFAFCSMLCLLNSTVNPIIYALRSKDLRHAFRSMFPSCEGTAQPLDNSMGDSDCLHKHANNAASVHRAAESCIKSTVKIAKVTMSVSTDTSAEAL
T1 sequence (Q9HC97 whole entry): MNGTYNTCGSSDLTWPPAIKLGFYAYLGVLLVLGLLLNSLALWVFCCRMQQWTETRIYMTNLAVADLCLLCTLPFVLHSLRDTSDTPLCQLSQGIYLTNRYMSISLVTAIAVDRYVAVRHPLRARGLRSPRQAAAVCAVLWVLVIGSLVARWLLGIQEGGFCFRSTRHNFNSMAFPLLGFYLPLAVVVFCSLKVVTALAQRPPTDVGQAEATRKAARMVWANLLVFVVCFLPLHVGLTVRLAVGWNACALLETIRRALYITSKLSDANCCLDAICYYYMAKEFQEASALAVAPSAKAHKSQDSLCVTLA
Chain of Dual specificity protein phosphatase 3 (P51452 whole entry): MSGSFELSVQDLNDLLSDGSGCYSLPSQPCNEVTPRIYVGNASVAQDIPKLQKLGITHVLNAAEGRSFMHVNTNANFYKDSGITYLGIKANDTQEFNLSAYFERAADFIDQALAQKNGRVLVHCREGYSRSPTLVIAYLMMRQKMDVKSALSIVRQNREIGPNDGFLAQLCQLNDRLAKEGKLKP
Chain of Tyrosine-protein phosphatase non-receptor type 12 (Q05209 whole entry): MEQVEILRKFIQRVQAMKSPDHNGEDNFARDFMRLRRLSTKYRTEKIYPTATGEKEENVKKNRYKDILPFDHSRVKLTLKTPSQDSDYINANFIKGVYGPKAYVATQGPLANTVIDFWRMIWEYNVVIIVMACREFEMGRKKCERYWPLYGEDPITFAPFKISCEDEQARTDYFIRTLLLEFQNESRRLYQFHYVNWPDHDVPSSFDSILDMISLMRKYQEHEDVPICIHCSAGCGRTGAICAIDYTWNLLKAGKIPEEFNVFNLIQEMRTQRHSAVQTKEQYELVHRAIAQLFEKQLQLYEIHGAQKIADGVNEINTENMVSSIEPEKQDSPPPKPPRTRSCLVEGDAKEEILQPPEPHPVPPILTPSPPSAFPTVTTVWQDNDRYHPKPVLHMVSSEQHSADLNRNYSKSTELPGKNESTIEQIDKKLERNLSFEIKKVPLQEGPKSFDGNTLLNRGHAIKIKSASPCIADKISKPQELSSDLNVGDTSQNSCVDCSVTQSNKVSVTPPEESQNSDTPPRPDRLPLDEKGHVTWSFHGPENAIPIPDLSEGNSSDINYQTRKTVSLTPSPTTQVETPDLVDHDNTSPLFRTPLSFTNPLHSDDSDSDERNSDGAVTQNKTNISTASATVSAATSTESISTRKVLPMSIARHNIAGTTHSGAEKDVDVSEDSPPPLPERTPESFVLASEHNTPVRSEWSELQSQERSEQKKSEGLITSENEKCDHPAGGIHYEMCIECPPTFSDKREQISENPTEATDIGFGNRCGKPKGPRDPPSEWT
Chain of G-protein coupled receptor 55 (Q9Y2T6 whole entry): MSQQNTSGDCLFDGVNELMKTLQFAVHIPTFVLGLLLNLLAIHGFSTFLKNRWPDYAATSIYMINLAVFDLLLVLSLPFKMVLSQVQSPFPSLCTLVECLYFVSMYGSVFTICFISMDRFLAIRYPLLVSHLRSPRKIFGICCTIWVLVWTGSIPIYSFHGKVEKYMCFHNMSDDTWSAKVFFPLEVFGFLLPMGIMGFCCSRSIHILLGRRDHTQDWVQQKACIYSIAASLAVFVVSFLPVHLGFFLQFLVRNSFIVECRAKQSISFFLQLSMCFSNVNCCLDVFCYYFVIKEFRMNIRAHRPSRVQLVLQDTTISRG

Consider `CCOc1ccc(CC(=O)N2CCC(n3nc(-c4ccccc4)oc3=O)CC2)cc1`, for which the EC50 (in [1]; on Cannabinoid receptor 1 [2]; at Cannabinoid receptor 2 [7]) was > 32 µM (inactive) in each case. In addition, the IC50 was > 32 µM (inactive) in [3], 7.68 µM (active) at Cannabinoid receptor 1 [4], > 32 µM (inactive) in test [5] and > 32 µM (inactive) on Cannabinoid receptor 2 [6].
For the compound `COc1cc(/C=C2/S/C(=N\c3cccc(Br)c3)NC2=O)ccc1OCC(=O)O`, the IC50 in test [8] was 7.86 µM (active); in test [9] it was 68.8 µM (active); in test [10] it was 7.44 µM (active); in test [11] it was 1.57 µM (active); in test [12], 32 µM (active); in [13] it was > 100 µM (inactive). Also, the IC50 in [14] was > 100 µM (inactive).
